Assays:
Assay type in all cases: binding
DRD1 = target: T1, DRD1 (Homo sapiens, UniProt P21728); experiment: NanoBRET screen HiBiT-DRD1 in HEK293
T1 construct: purchased Promega (in-house HiBiT-GPCR construct library, NanoBRET)
Experimental: (§1) Each tracer candidate was screened across the entire library of HiBiT-GPCR constructs using NanoBRET as the detection modality. As depicted in Figure 4A, the specificity of interactions was evaluated through decrease in BRET due to competitive displacement of a bound tracer by excess parental compound. Each tracer was analyzed for binding to each HiBiT-GPCR fusion in the absence and in the presence of competing parental compound. Briefly, HEK293 cells were transfected with HiBiT-GPCR constructs diluted into promoterless DNA to reduce expression and maximize translocation to the cell surface. Each tracer candidate was then screened at concentrations of 1 μM and 0.1 μM across cells expressing these fusions. Cells were treated for 1.5 h with tracer either alone or in the presence of 20 μM competing parental compound (i.e., control). BRET was measured upon addition of purified LgBiT and subsequent complementation with HiBiT genetically fused to a GPCR. The specificity of interactions was assessed through a decrease in BRET signal due to competitive displacement of the bound tracer. To further gauge the robustness of these interactions, the fold response over the control (i.e., BRETtracer/BRETcontrol) was calculated. We chose a 1.5-fold response, which translates to ≥7-fold signal over noise as the minimal threshold required to score an interaction as positive.
(§2) HiBiT-GPCR DNA constructs were diluted in 10 mM Tris pH 8 to a final concentration of 0.01 μg/μL, arrayed in 96-well plates and stored at −20 °C. For transfection, HEK293 cells were suspended in Opti-MEM (without phenol red) supplemented with 2% fetal bovine serum (Seradigm) and 100 units/mL penicillin–streptomycin (Gibco) at a final concentration of 220,000 cells/mL and dispensed into white 96-well plates at 90 μL/well. Subsequent transfections and screens were carried using an Agilent Bravo Automated Liquid Handling Platform. First, the 96-well HiBiT DNA arrays were diluted 25-fold in Opti-MEM (without serum or phenol red) to a final concentration of 0.0004 μg/μL and 20 μL of the diluted DNAs were transferred into new 96-well plates. Next, promoterless carrier DNA (1 μg/μL) was diluted 25-fold (0.04 μg/μL) and then dispensed into the diluted arrays at 20 μL/well. Following brief mixing, Viafect transfection reagent (Promega) diluted 16-fold into Opti-MEM was dispensed into the plates at 40 μL/well. After mixing by pipetting, plates were incubated for 10 min on the pipetting station deck. The DNA-transfection reagent complexes were then added to plates containing cells. To facilitate the screen, 10 μL of DNA-transfection reagent complexes were added in duplicates to the top 4 and bottom 4 rows, resulting in two identical 48-well arrays per plate. Plates with transfected cells were incubated for 18–20 h at 37 °C/5% CO2. A screen of each tracer across the entire library using two different concentrations requires duplicate plates of transfected cells. Depending on the number of tracers being screened, transfections can be scaled up using the same ratios. The next day, for each tracer, four 20× screening solutions in tracer dilution buffer (Promega) were prepared: two duplicates at final concentration of 20 μM and two duplicates at a final concentration of 2 μM. […] The four resulting solutions were diluted 4-fold in Opti-MEM without serum or phenol red to generate 5× solutions (5 µM and 0.5 µM tracer +/− 100 μM competing compound). To screen the library, a BioTek MultiFlo FX liquid dispenser was used to dispense 22.5 µL of tracer solution to the top 4 rows and 22.5 µL tracer + competing compound solution to the 4 bottom rows. Plates were briefly mixed on an orbital shaker and incubated for 1.5 h at room temperature. […] Plates were briefly mixed on an orbital shaker and incubated for 15 min to allow complementation.

ADRA1A = target: T2, ADRA1A (Homo sapiens, UniProt P35348); experiment: NanoBRET screen HiBiT-ADRA1A in HEK293
T2 construct: purchased Promega (in-house HiBiT-GPCR construct library, NanoBRET)
T2 sequence (P35348 1-466): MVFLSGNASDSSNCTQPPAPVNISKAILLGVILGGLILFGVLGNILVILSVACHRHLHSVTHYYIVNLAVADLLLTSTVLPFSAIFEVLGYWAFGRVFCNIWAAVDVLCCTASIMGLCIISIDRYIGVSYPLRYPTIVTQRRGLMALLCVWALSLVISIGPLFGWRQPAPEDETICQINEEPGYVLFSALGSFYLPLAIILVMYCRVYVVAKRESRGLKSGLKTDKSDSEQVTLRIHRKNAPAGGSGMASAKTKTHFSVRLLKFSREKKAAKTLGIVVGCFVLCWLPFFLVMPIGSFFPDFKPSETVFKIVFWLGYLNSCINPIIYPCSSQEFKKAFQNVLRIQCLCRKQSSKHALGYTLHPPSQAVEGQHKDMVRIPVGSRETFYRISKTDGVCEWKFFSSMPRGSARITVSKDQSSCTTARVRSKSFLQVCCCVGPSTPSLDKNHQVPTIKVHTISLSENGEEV
Experimental: as §1, §2

CNR2 = target: T3, CNR2 (Homo sapiens, UniProt P34972); experiment: NanoBRET screen HiBiT-CNR2 in HEK293; conditions: CNR2
T3 construct: purchased Promega (in-house HiBiT-GPCR construct library, NanoBRET)
Experimental: as §1, §2

HTR1F = target: T4, HTR1F (Homo sapiens, UniProt P30939); experiment: NanoBRET screen HiBiT-HTR1F in HEK293
T4 construct: purchased Promega (in-house HiBiT-GPCR construct library, NanoBRET)
T4 sequence (P30939 1-366): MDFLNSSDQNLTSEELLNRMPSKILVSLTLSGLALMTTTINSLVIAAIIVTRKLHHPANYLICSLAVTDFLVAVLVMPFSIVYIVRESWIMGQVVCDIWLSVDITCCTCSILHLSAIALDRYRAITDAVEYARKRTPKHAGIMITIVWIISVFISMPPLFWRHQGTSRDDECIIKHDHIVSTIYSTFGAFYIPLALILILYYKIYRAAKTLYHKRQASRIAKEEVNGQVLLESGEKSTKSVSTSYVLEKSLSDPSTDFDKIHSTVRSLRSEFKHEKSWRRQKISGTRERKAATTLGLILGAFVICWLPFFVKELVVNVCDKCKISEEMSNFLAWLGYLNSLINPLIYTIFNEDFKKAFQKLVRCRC
Experimental: as §1, §2

ADRA2B = target: T5, ADRA2B (Homo sapiens, UniProt P18089); experiment: NanoBRET screen HiBiT-ADRA2B in HEK293; conditions: ADRA2B, other tracers/Aminopotentidine (unmodified)
T5 construct: purchased Promega (in-house HiBiT-GPCR construct library, NanoBRET)
T5 sequence (P18089 1-450): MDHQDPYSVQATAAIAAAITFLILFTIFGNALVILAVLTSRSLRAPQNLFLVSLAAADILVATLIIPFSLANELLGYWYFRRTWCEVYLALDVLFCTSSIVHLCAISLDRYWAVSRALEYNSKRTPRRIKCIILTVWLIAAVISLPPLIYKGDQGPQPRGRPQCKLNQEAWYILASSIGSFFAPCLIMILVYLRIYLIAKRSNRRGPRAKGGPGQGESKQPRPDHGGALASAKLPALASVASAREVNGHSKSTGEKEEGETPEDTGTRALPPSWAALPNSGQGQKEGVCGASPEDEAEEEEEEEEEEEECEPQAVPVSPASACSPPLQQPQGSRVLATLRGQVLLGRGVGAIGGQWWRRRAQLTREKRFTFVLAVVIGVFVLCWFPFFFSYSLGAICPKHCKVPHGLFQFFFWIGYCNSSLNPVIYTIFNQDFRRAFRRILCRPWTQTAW

T1 sequence (P21728 whole entry): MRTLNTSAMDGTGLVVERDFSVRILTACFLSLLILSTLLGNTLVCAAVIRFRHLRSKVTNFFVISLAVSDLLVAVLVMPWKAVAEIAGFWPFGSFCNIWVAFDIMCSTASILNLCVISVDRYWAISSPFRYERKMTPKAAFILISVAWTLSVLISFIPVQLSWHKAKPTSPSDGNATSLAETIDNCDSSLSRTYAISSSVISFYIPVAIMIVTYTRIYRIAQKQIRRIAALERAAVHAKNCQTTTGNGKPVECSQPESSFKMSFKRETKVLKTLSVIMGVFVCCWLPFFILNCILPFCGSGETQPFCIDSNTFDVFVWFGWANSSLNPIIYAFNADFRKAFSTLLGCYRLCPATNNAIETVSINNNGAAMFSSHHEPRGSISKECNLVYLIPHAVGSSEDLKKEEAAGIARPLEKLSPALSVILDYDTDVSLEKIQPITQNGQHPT
T3 sequence (P34972 whole entry): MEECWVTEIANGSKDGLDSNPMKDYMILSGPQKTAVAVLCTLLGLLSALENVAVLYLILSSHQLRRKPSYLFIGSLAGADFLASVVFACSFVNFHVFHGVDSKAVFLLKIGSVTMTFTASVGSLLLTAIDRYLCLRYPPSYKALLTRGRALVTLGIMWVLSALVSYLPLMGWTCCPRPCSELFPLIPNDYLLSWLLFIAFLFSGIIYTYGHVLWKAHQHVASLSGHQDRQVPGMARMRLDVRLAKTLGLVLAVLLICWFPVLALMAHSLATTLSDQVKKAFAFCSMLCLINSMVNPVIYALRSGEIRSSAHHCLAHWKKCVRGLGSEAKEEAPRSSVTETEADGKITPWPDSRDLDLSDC

Compound | NanoBRET Fold Response (DRD1; DRD1, tracer 0.1μM) | NanoBRET Fold Response (DRD1; DRD1, tracer 1μM) | NanoBRET Fold Response (ADRA1A; ADRA1A, tracer 0.1μM) | NanoBRET Fold Response (ADRA1A; ADRA1A, tracer 1μM) | NanoBRET Fold Response (CNR2; tracer 0.1μM) | NanoBRET Fold Response (CNR2; tracer 1μM) | NanoBRET Fold Response (HTR1F; HTR1F, tracer 0.1μM) | NanoBRET Fold Response (HTR1F; HTR1F, tracer 1μM) | other results
O=C(CCc1ccc2n1[B-](F)(F)[N+]1=C(c3ccc[nH]3)C=CC1=C2)NCCOCCOCCNC(=O)OCCOCCN1CCN(C2=Nc3ccccc3Sc3ccccc32)CC1 [Quetiapine-a-2-NB590] | 1.65 | 1.97 | 3.24 | 3.51 | 1.07 | 1.29 | 1.01 | 0.95 | –
O=C(CCc1ccc2n1[B-](F)(F)[N+]1=C(c3ccc[nH]3)C=CC1=C2)NCc1ccc(C(=O)NCCOCCOCCNCC(O)COc2cccc3ccccc23)cc1 (stereo not shown) [Propranolol-3-NB590] | – | – | – | – | – | – | – | – | NanoBRET Fold Response (DRD1; DRD1, 0.1μM): 1.01; NanoBRET Fold Response (DRD1; DRD1, 1μM): 0.98; NanoBRET Fold Response (ADRA1A; ADRA1A, 0.1μM): 1.53; NanoBRET Fold Response (ADRA1A; ADRA1A, 1μM): 1.47; NanoBRET Fold Response (CNR2; 0.1μM): 0.95; NanoBRET Fold Response (CNR2; 1μM): 1.01; NanoBRET Fold Response (HTR1F; HTR1F, 0.1μM): 1.08; NanoBRET Fold Response (HTR1F; HTR1F, 1μM): 0.99
O=C(CCc1ccc2n1[B-](F)(F)[N+]1=C(c3ccc[nH]3)C=CC1=C2)NCc1ccc(C(=O)NCCOCCC(=O)N[C@@H]2CC[C@@]3(O)[C@H]4Cc5ccc(O)c6c5[C@@]3(CCN4CC3CC3)[C@H]2O6)cc1 [Naltrexone-3-NB590] | 0.98 | 1.03 | 1.10 | 0.96 | 0.92 | 0.91 | 1.35 | 1.30 | –
Cc1cc2c(s1)Nc1ccccc1N=C2N1CCN(CCCNC(=O)CCOCCOCCOCCOCCNC(=O)CCc2ccc3n2[B-](F)(F)[N+]2=C(c4ccc[nH]4)C=CC2=C3)CC1 [Olanzapine-a-2-NB590] | 2.04 | 3.08 | 2.86 | 3.58 | 0.23 | 1.06 | 1.01 | 1.21 | –
N#CN/C(=N\CCNC(=O)c1ccc(N)cc1)NCCCOc1cccc(CN2CCCCC2)c1 [Aminopotentidine (unmodified)] | – | – | – | – | – | – | – | – | NanoBRET Fold Response (DRD1; DRD1, other tracers/Aminopotentidine (unmodified), 0.1μM): 1.10; NanoBRET Fold Response (DRD1; DRD1, other tracers/Aminopotentidine (unmodified), 1μM): 1.11; NanoBRET Fold Response (ADRA2B; 0.1μM): 1.49; NanoBRET Fold Response (ADRA2B; 1μM): 1.60; NanoBRET Fold Response (ADRA1A; ADRA1A, other tracers/Aminopotentidine (unmodified), 0.1μM): 1.03; NanoBRET Fold Response (ADRA1A; ADRA1A, other tracers/Aminopotentidine (unmodified), 1μM): 1.07; NanoBRET Fold Response (HTR1F; HTR1F, other tracers/Aminopotentidine (unmodified), 0.1μM): 1.04; NanoBRET Fold Response (HTR1F; HTR1F, other tracers/Aminopotentidine (unmodified), 1μM): 1.21
CN(CCC=C1c2ccccc2CCc2ccccc21)C(=O)CCOCCOCCOCCOCCNC(=O)CCc1ccc2n1[B-](F)(F)[N+]1=C(c3ccc[nH]3)C=CC1=C2 [Amitriptyline-e-2-NB590] | – | – | – | – | – | – | – | – | NanoBRET Fold Response (DRD1; tracer at 1μM): 1.12; NanoBRET Fold Response (ADRA1A; tracer at 1μM): 1.32; NanoBRET Fold Response (HTR1F; tracer at 1μM): 1.02

— publication PMC8151276, “An Integrated Approach toward NanoBRET Tracers for Analysis of GPCR Ligand Engagement” (Molecules, 2021)
